The target in experiment [1] is T1, BRD4 bromo domain 1 [BRD4(1)] (Homo sapiens, UniProt O60885).
T1 construct: N-terminally His6-tagged BRD4(1) (amino acids 67-152); made in house; host or cells: E. coli
As to the kind of experiment: BRD4(1)/acetylated peptide H4 binding assay (TR-FRET). The note with it: inhibition of interaction between His6-tagged BRD4(1) (amino acids 67-152) and acetylated histone H4 peptide. Put shortly:
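IC50 came from a 4-parameter fit of the 665/620 nm emission ratio, normalised to DMSO and no-protein controls. His6-tagged BRD4(1) residues 67-152 (typically 10 nM final) was preincubated 10 min with compound (0.1 nM to 20 μM, duplicates), then exposed to Ac-H4-biotin peptide at 22 °C for 1 h and 4 °C for at least 3 h.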
A general note: Time-resolved FRET reads energy transfer from a long-lived donor to a nearby acceptor.

In experiment [2] the target is T2, BRD4 bromo domain 2 [BRD4(2)] (Homo sapiens, UniProt O60885).
T2 construct: N-terminally His6-tagged BRD4(2) (amino acids 357-445); made in house; host or cells: E. coli
As to the kind of experiment: BRD4(2)/acetylated peptide H4 binding assay (TR-FRET). Conditions: inhibition of interaction between His6-tagged BRD4(2) (amino acids 357-445) and acetylated histone H4 peptide. A digest of the protocol:
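Compounds (0.1 nM to 20 μM, 11 points, duplicates) preincubated 10 min at 22 °C with 100 nM His6-tagged BRD4(2) residues 357-445, then Ac-H4-biotin peptide added; incubated 1 h at 22 °C and 3 h-overnight at 4 °C. Eu/XL665 emission ratio normalised to DMSO and no-protein controls; 4-parameter IC50.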

The subject of another experiment is MOLM-13 cell line. As to the kind of experiment: MOLM-13 cell proliferation assay (alamarBlue). Conditions: Homo sapiens, inhibition of proliferation of MOLM-13 cells (acute myeloid leukaemia), 96 hours incubation. In kind it is cell-based. A digest of the protocol:
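MOLM-13 (human AML) cells were treated with compound dilutions for 96 h at 37 °C after overnight plating, and viability was read by alamarBlue fluorescence (ex 530/em 590 nm). Pre-treatment readings were subtracted from end-point readings, and IC50 was calculated relative to buffer-only controls.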
For orientation: Alamar Blue is a resazurin reagent that responds to reducing activity.

For orientation: IC50 means the concentration at which inhibition is half-maximal.

Turning to `CC(C)N1c2nc(Nc3ccc(S(=O)(=O)N(C)C)cc3)ccc2N(C)C(=O)[C@H]1C` [Example 100, 4-{[(3R)-1,3-Dimethyl-2-oxo-4-(propan-2-yl)-1,2,3,4-tetrahydropyrido[2,3-b]pyrazin-6-yl]amino}-N,N-dimethylbenzenesulphon-amide], the figures for the IC50 (in experiment [1]; in experiment [2]; in the experiment on MOLM-13 cell line) were 156 nM, 71 nM and 336 nM, respectively.

Regarding `CC(C)N1c2nc(Nc3ccc(S(=O)(=O)N4CCOCC4)cc3)ccc2N(C)C(=O)[C@H]1C` [Example 101, (3R)-1,3-Dimethyl-6-{[4-(morpholin-4-ylsulphonyl)phenyl]amino}-4-(propan-2-yl)-3,4-dihydropyrido[2,3-b]pyrazin-2(1H)-one], the 50% inhibitory concentration (IC50) is 134 nM in experiment [1], 105 nM in experiment [2] and 226 nM in the experiment with MOLM-13 cell line.

Regarding `CC(C)N1CCN(S(=O)(=O)c2ccc(Nc3ccc4c(n3)N(C3CCCC3)[C@H](C)C(=O)N4C)cc2)CC1` [Example 102, (3R)-4-Cyclopentyl-1,3-dimethyl-6-[(4-{[4-(propan-2-yl)piperazin-1-yl]sulphonyl}phenyl)amino]-3,4-dihydropyrido[2,3-b]pyrazin-2(1H)-one], the 50% inhibitory concentration (IC50) was found to be 100 nM in experiment [1], 90 nM in experiment [2] and 214 nM with MOLM-13 cell line.

As to `C[C@@H]1C(=O)N(C)c2ccc(Nc3ccc(S(=O)(=O)N(C)C)cc3)nc2N1C1CCCC1` [Example 103, 4-{[(3R)-4-Cyclopentyl-1,3-dimethyl-2-oxo-1,2,3,4-tetrahydropyrido[2,3-b]pyrazin-6-yl]amino}-N,N-dimethylbenzenesulphonamide], the 50% inhibitory concentration (IC50) in experiment [1] was 78 nM; in experiment [2] it was 51 nM; in the experiment with MOLM-13 cell line it was 177 nM.

`CC1C(=O)N(C)c2ccc(Nc3ccc(S(=O)(=O)NC4CCN(C)CC4)cc3)nc2N1c1ccccc1` (stereo not drawn) [Example 107, 4-[(1,3-Dimethyl-2-oxo-4-phenyl-1,2,3,4-tetrahydropyrido[2,3-b]pyrazin-6-yl)amino]-N-(1-methylpiperidin-4-yl)benzenesulphonamide]: the half-inhibitory concentration (IC50) in experiment [1] was 201 nM; in experiment [2], 241 nM; in the experiment with MOLM-13 cell line, 255 nM.

For the origin of these results see US20160193206A1, “BET-PROTEIN-INHIBITING DIHYDROPYRIDOPYRAZINONES” (BAYER PHARMA AKTIENGESELLSCHAFT, priority 2012, published 2016).
